By EC50 is commonly meant the concentration at which the effect is half-maximal. As usually defined, the CC50 is the concentration giving 50% cytotoxicity. For orientation: IC50 means the concentration that gives 50% inhibition. Higher therefore signals weaker potency in that assay.

In data set [1] the test system is Human immunodeficiency virus 1. As to the kind of experiment: Antiviral activity against HIV-1 IIIB infected in human MT4 cells assessed as reduction in viral replication by MTT assay. Type of data set: functional, organism-based. As to conditions: Human immunodeficiency virus 1, IIIB. (Formazan colour is commonly taken as a measure of viable cells.)
In data set [2] the test system is Human immunodeficiency virus 1. As to the kind of experiment: Antiviral activity against HIV-1 ROD infected in human MT4 cells assessed as reduction in viral replication by MTT assay. It is filed as functional, organism-based.
The nature of data set [3]: Cytotoxicity against human MT4 cells assessed as reduction on cell growth by MTT assay. It is filed as toxicity, cell-based.
Data set [4] in a line: Selectivity index, ratio of CC50 for cytotoxicity against human MT4 cells to EC50 of Anti-HIV activity against HIV-1 IIIB infected in human MT4 cells. It is filed as toxicity, cell-based. Conditions: read-out: Ratio CC50/EC50.
Data set [5] has as its system Human immunodeficiency virus 1. As to the kind of experiment: Antiviral activity against HIV-1 L100I mutant infected in human MT4 cells assessed as reduction in viral replication by MTT assay. It is filed as functional, organism-based. Conditions: Human immunodeficiency virus 1, L100I mutant.
The test system of data set [6] is Human immunodeficiency virus 1. As to the kind of experiment: Antiviral activity against HIV-1 K103N mutant infected in human MT4 cells assessed as reduction in viral replication by MTT assay. Type of data set: functional, organism-based. Conditions: Human immunodeficiency virus 1, K103N mutant.
In data set [7] the test system is Human immunodeficiency virus 1. As to the kind of experiment: Antiviral activity against HIV-1 Y181C mutant infected in human MT4 cells assessed as reduction in viral replication by MTT assay. It is filed as functional, organism-based. As to conditions: Human immunodeficiency virus 1, Y181C mutant.
Data set [8] concerns Human immunodeficiency virus 1. As to the kind of experiment: Antiviral activity against HIV-1 Y188L mutant infected in human MT4 cells assessed as reduction in viral replication by MTT assay. Type of data set: functional, organism-based. As to conditions: Human immunodeficiency virus 1, Y188L mutant.
Data set [9] concerns Human immunodeficiency virus 1. As to the kind of experiment: Antiviral activity against HIV-1 E138K mutant infected in human MT4 cells assessed as reduction in viral replication by MTT assay. As to conditions: Human immunodeficiency virus 1, E138K mutant. Type of data set: functional, organism-based.
For data set [10], the system named is Human immunodeficiency virus 1. As to the kind of experiment: Antiviral activity against HIV-1 F227L-V106A mutant infected in human MT4 cells assessed as reduction in viral replication by MTT assay. Type of data set: functional, organism-based. Conditions: Human immunodeficiency virus 1, F227L-V106A mutant.
Data set [11] concerns Human immunodeficiency virus 1. As to the kind of experiment: Antiviral activity against HIV-1 K103N-Y181C mutant infected in human MT4 cells assessed as reduction in viral replication by MTT assay. It is filed as functional, organism-based. Conditions: Human immunodeficiency virus 1, K103N-Y181C mutant.
Data set [12] addresses Human immunodeficiency virus type 1 reverse transcriptase (Human immunodeficiency virus 1, UniProt Q72547). As to the kind of experiment: Inhibition of wild type HIV-1 Reverse transcriptase.

A value given as a limit tells only on which side of the number the result lay.

For the compound `COc1cc(-c2ccc(C#N)cc2)ccc1Oc1c(C(F)(F)F)ccn(Cc2n[nH]c(=O)n2C)c1=O`, the EC50 in data set [1] was 8020 nM; in data set [2], more than 35000 nM; in data set [5] it was 3770 nM; in data set [6], 13000 nM; in data set [7], 21300 nM; in data set [8], more than 35000 nM. The EC50 in data set [9] is 19500 nM; in data set [10], more than 35000 nM; in [11], more than 35000 nM. The CC50 in [3] turned out to be 142000 nM. Besides, in data set [4], the selectivity ratio stood at 17.6. In data set [12], inhibition was half-maximal at 24600 nM (IC50).

`Cn1c(Cn2ccc(C(F)(F)F)c(Oc3c(F)cc(-c4cccc(F)c4)cc3F)c2=O)n[nH]c1=O`: the EC50 in data set [1] was 5740 nM; in [2], more than 35000 nM; in [5], 4150 nM; in data set [6], 6340 nM; in [7] it was more than 35000 nM; in [8] it was more than 35000 nM. Besides, the results for the EC50 in data set [9], in data set [10] and in data set [11] were 6810 nM, more than 35000 nM and more than 35000 nM, respectively. In data set [3], the CC50 came to 25400 nM. In addition, the selectivity ratio in data set [4] stood at 4.42. The compound further had an IC50 in data set [12] of 26300 nM.

Consider `Cn1c(Cn2ccc(C(F)(F)F)c(Oc3c(F)cc(-c4cccc(C#N)c4)cc3F)c2=O)n[nH]c1=O`, for which the EC50 was 1140 nM in data set [1]; more than 35000 nM in data set [2]; 1850 nM in [5]; 2240 nM in data set [6]; 8640 nM in [7]; more than 35000 nM in data set [8]. The EC50 in [9] was 3060 nM; in data set [10] it was more than 35000 nM; in [11], more than 35000 nM. Besides, the CC50 in data set [3] stood at 21200 nM. Besides, the selectivity ratio in [4] was determined as 18.7. In data set [12], the IC50 came to 2570 nM.

With `Cn1c(Cn2ccc(C(F)(F)F)c(Oc3c(F)cc(-c4ccc(F)c(C#N)c4)cc3F)c2=O)n[nH]c1=O`, the half-maximal effective concentration (EC50) is 620 nM in data set [1]; more than 35000 nM in data set [2]; 1610 nM in [5]; 1200 nM in data set [6]; 4690 nM in data set [7]; more than 35000 nM in data set [8]. Also, the EC50 is 2090 nM in data set [9], more than 35000 nM in [10] and more than 35000 nM in data set [11]. In addition, in data set [3], the CC50 worked out at 19000 nM. For the same compound, the selectivity ratio in [4] was 30.7. The compound further came in with an IC50 in data set [12] of 1650 nM.

As to `Cn1c(Cn2ccc(C(F)(F)F)c(Oc3cc(C#N)cc(-c4ccc(F)c(C#N)c4)c3)c2=O)n[nH]c1=O`, the half-maximal effective concentration (EC50) was 43 nM in [1]; more than 35000 nM in [2]; 89 nM in data set [5]; 51 nM in data set [6]; 450 nM in [7]; 1520 nM in [8]. Further, the EC50 is 77 nM in [9], more than 35000 nM in [10] and 1010 nM in [11]. For the same compound, the CC50 in [3] was found to be 87900 nM. Besides, the selectivity ratio in [4] is 2060. This compound displayed an IC50 in data set [12] of 290 nM.

`Cn1c(Cn2ccc(C(F)(F)F)c(Oc3cc(C#N)cc(-c4cc(F)cc(C#N)c4)c3)c2=O)n[nH]c1=O`: the EC50 is 30 nM in data set [1]; more than 35000 nM in data set [2]; 50 nM in data set [5]; 26 nM in data set [6]; 180 nM in data set [7]; 880 nM in data set [8]. In addition, the EC50 in [9] was 62 nM; in data set [10] it was more than 35000 nM; in [11] it was 420 nM. Further, the 50% cytotoxic concentration (CC50) in data set [3] is 84400 nM. Also, in data set [4], the selectivity ratio came out at 2810. Besides, the IC50 in data set [12] was 170 nM.

Consider `Cn1c(Cn2ccc(C(F)(F)F)c(Oc3cc(C#N)cc(-c4ccc(F)cc4)c3)c2=O)n[nH]c1=O`, for which the EC50 in [1] is 53 nM; in data set [2], more than 35000 nM; in data set [5], 88 nM; in data set [6], 42 nM; in data set [7] it was 340 nM; in [8], 3560 nM. The EC50 is 120 nM in [9], more than 35000 nM in data set [10] and 1460 nM in [11]. In addition, the CC50 in data set [3] is more than 267000 nM. The selectivity ratio in [4] was more than 4840. In data set [12], this compound returned an IC50 of 110 nM.

As for `Cn1c(Cn2ccc(C(F)(F)F)c(Oc3cc(C#N)cc(-c4ccc(C#N)cc4)c3)c2=O)n[nH]c1=O`, the EC50 in data set [1] is 46 nM; in data set [2], more than 35000 nM; in data set [5], 70 nM; in data set [6], 78 nM; in [7] it was 450 nM; in data set [8] it was 610 nM. Besides, the figures for the EC50 in [9], in data set [10] and in data set [11] were 82 nM, more than 35000 nM and 2000 nM, respectively. In addition, the CC50 in data set [3] was 142000 nM. The selectivity ratio in [4] turned out to be 3110. In addition, in [12], half-maximal inhibition (IC50) was put at 520 nM.

For `Cc1ccc(-c2cc(C#N)cc(Oc3c(C(F)(F)F)ccn(Cc4n[nH]c(=O)n4C)c3=O)c2)cc1`, the EC50 is 230 nM in data set [1]; more than 35000 nM in [2]; 97 nM in [5]; 540 nM in data set [6]; 210 nM in data set [7]; 1660 nM in data set [8]. Besides, the EC50 in data set [9] was 150 nM; in [10] it was more than 35000 nM; in data set [11], 5130 nM. In addition, in data set [3], the CC50 was more than 267000 nM. Besides, the selectivity ratio in [4] is more than 1150. The compound further came in with an IC50 in data set [12] of 1530 nM.

Regarding `Cn1c(Cn2ccc(C(F)(F)F)c(Oc3cc(C#N)cc(-c4cccc(C#N)c4)c3)c2=O)n[nH]c1=O`, the EC50 was 23 nM in data set [1]; more than 35000 nM in data set [2]; 16 nM in data set [5]; 26 nM in [6]; 120 nM in [7]; 360 nM in data set [8]. In addition, the EC50 is 26 nM in [9], more than 35000 nM in data set [10] and 260 nM in data set [11]. In [3], the CC50 was determined as 101000 nM. Moreover, in data set [4], the selectivity ratio was determined as 4500. Besides, the IC50 in data set [12] was determined as 210 nM.

Turning to `Cn1c(Cn2ccc(C(F)(F)F)c(Oc3c(F)cc(-c4ccc(C#N)cc4)cc3F)c2=O)n[nH]c1=O`, the EC50 is 720 nM in data set [1]; more than 35000 nM in [2]; 1690 nM in data set [5]; 1140 nM in data set [6]; 4970 nM in data set [7]; more than 35000 nM in data set [8]. Also, the values for the EC50 in [9], in data set [10] and in data set [11] were 1460 nM, more than 35000 nM and more than 35000 nM, respectively. The CC50 in [3] was found to be 21200 nM. Besides, the selectivity ratio in data set [4] amounted to 29.5. Moreover, it took 3130 nM to reach half-maximal inhibition in data set [12] (IC50).

As for `Cn1c(Cn2ccc(C(F)(F)F)c(Oc3cc(C#N)cc(-c4cccc(F)c4)c3)c2=O)n[nH]c1=O`, the EC50 was 15 nM in data set [1]; more than 35000 nM in [2]; 21 nM in [5]; 12 nM in data set [6]; 54 nM in data set [7]; 830 nM in data set [8]. Also, the EC50 was 21 nM in data set [9], more than 35000 nM in data set [10] and 310 nM in data set [11]. In addition, in data set [3], the CC50 is 19100 nM. The selectivity ratio in data set [4] was 1270. The compound further showed an IC50 in data set [12] of 56 nM.

For `Cn1c(Cn2ccc(C(F)(F)F)c(Oc3c(F)cc(-c4cc(F)cc(C#N)c4)cc3F)c2=O)n[nH]c1=O`, the EC50 in data set [1] was 1640 nM; in [2], more than 35000 nM; in data set [5], 2970 nM; in [6] it was 2070 nM; in data set [7], more than 35000 nM; in data set [8], more than 35000 nM. The results for the EC50 in data set [9], in [10] and in data set [11] were 5200 nM, more than 35000 nM and more than 35000 nM, respectively. In addition, the CC50 in data set [3] stood at 16600 nM. In [4], the selectivity ratio worked out at 10.2. Moreover, the IC50 in [12] came to 3250 nM.

The record behind these values is ChEMBL document CHEMBL5113480, “Discovery of novel biphenyl-substituted pyridone derivatives as potent non-nucleoside reverse transcriptase inhibitors with promising oral bioavailability” (Eur J Med Chem, 2022).
